Laboratory results: patent publication US20200223889A1, “Bicyclic Compounds Capable of Binding to Melanocortin 4 Receptor” (Novo Nordisk A/S, priority 2017, published 2020)
Like-named read-outs stand apart in the source and are kept apart here. Positions of bridges follow the written chain, without caps; N, C: chain ends. Non-standard residues stand in square brackets, D forms with d. Residues, ends and D or L forms follow the SMILES beside them. Hyp = O=C(O)[C@@H]1C[C@@H](O)CN1; Cit = NC(=O)NCCC[C@H](N)C(=O)O; Thz = O=C(O)[C@@H]1CSCN1; Sar = CNCC(=O)O

Key:
human MC4R [1] = target: T1, human MC4R (Homo sapiens, UniProt P32245); assay: Functional cAMP assay (CisBio HTRF) in BHK cells expressing human MC4R; type: cell-based; details: for MC1R/MC4R cAMP EC50 ratio: MC1R cAMP EC50 divided by MC4R cAMP EC50
T1 construct: expressed in transfected cells
Summary of the method: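 Stably transfected BHK cells expressing human MC1R or MC4R; cAMP quantified by HTRF (cAMP-d2/cryptate) after 30 min compound stimulation at 25 °C in DMEM-based buffer with 1 mM IBMX. Compounds were prepared as 10-fold serial dilutions starting at 2 μM (working solution, 2× final). Readout after 1 h at 25 °C; non-linear regression.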

human MC1R = target: T2, human MC1R (Homo sapiens, UniProt Q01726); assay: Functional cAMP assay (CisBio HTRF) in BHK cells expressing human MC1R; type: cell-based
T2 construct: expressed in transfected cells
Protocol: In order to assess the potency of the compounds on human MC1R and human MC4R cAMP signalling was measured.
cAMP induction was measured by c-AMPdynamic2 assay, HTRF 62AM4PEC system from CisBio for the human MC1R and human MC4R according to the protocol provided by the vendor. BHK cells expressing the human MC1 or MC4 receptor were generated by stable transfection with expression vectors encoding the cDNA of either MC1R or MC4R.
In details; 25 μl compound—or standard solution were added in the respective wells. Compound was reconstituted in buffer (DMEM w/o phenol red, 10 mM
Hepes, lx Glutamine, 0.1% OV-albumin1, 1 mM IBMX) and serially diluted starting at 2 μM, 10-fold seven times. Dilutions were carried out in the same aforementioned buffer to the desired working concentration ranges (2× higher than the final concentration). 25 μl cell solution was then added and allowed to incubate for 30 min while lightly shaking, at 25° C. […] The provided components for the assay were reconstituted according to the CisBio assay protocol “3.1 supplied reagents and preparation procedure” in MilliQ purification system H2O and diluted 1:20 in lysis buffer. 25 μl cAMP-d2 and 25 μl Cryptate conjugate were added to all wells.
Plates were centrifuged at 1500 rpm for 30 sec and incubated for 1 h, lightly shaking, at 25° C. in a hotel stacker. The plates were read on Mithras LB 940 provided by Berthold Technologies The data were analysed by non-linear regression analysis of binding curves, using the Windows™ program GraphPad™ Prism (GraphPad Software, USA).
The latter is used when no full curve can be obtained in the concentration ranges indicated above.

human MC4R [2] = target: T1, human MC4R; assay: 125NDP-α-MSH competitive binding to membranes of BHK cells expressing human MC4 receptor (filtration assay)
Summary of the method: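 Displacement of ^125NDP-α-MSH (apx. […] final) was measured by filtration after 2 h at 25 °C, using diluted membranes of stably transfected BHK cells in pH 7.0 HEPES buffer. Compounds spanned 1 μM to 0.001 nM; binding curves were analysed by non-linear regression.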

[3] = BHK cells expressing human MC4R, '>' = highest dose used with no response, read-out: MC4R cAMP EC50
[4] = BHK cells expressing human MC1R, '>' = highest dose used with no response, read-out: MC1R cAMP EC50
[5] = human MC4R, BHK cell membranes, 125NDP-α-MSH radioligand, read-out: MC4R binding Ki

T1 sequence (P32245 whole entry): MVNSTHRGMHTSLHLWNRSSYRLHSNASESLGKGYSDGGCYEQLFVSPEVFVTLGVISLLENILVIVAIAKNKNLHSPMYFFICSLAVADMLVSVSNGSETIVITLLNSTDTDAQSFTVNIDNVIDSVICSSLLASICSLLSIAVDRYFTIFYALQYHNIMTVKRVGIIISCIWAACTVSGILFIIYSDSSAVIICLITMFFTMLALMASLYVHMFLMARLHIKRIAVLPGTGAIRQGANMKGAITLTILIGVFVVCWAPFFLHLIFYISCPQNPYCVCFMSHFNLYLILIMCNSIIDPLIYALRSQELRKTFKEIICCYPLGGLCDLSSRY
T2 sequence (Q01726 whole entry): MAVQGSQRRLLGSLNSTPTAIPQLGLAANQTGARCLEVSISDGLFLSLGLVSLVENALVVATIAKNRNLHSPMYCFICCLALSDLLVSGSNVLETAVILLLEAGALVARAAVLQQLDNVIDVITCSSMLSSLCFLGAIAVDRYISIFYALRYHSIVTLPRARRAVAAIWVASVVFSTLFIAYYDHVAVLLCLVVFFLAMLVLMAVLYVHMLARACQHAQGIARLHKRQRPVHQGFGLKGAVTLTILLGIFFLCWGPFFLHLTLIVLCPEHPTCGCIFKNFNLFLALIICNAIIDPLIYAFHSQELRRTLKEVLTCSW

| Structure (SMILES) | EC50 (human MC4R [1]; [3]) [nM] | MC1R/MC4R cAMP EC50 ratio (human MC4R [1]) | EC50 (human MC1R; [4]) [nM] | Ki (human MC4R [2]; [5]) [nM] | EC50 (human MC4R [1]) [nM] | EC50 (human MC1R) [nM] | Ki (human MC4R [2]) [nM] |
| --- | --- | --- | --- | --- | --- | --- | --- |
| N=C(N)NCCC[C@@H]1NC(=O)[C@@H](Cc2ccccc2)NC(=O)[C@H](Cc2c[nH]cn2)NC(=O)[C@H]2CCCN2C(=O)[C@@H]2CSSC[C@H](NC(=O)[C@H](Cc3c[nH]c4ccccc34)NC1=O)C(=O)N1CCC[C@@H]1C(=O)N[C@@H](Cc1c[nH]cn1)C(=O)N[C@H](Cc1ccccc1)C(=O)N[C@@H](CCCNC(=N)N)C(=O)N[C@@H](Cc1c[nH]c3ccccc13)C(=O)N2 [Chem. 33, c[c[Cys-D-Pro-His-D-Phe-Arg-Trp- Cys]-D-Pro-His-D-Phe-Arg-Trp]] (cyclo(C[dP]H[dF]RWC[dP]H[dF]RW); disulfide 1-7) | 19.8 | – | > 1 | 27.8 | – | – | – |
| C[C@@H]1NC(=O)[C@H](CCC(=O)O)NC(=O)[C@H](CCC(=O)O)NC(=O)[C@H](C)NC(=O)[C@@H]2CSSC[C@H](NC(=O)[C@H](Cc3c[nH]c4ccccc34)NC1=O)C(=O)N[C@@H](C)C(=O)N[C@@H](Cc1c[nH]cn1)C(=O)N[C@H](Cc1ccccc1)C(=O)N[C@@H](CCCNC(=N)N)C(=O)N[C@@H](Cc1c[nH]c3ccccc13)C(=O)N2 [Chem. 102, c[c[Cys-Ala-His-D-Phe-Arg-Trp-Cys]- Ala-Glu-Glu-Ala-Trp]] (cyclo(AEEAWCAH[dF]RWC); disulfide 6-12) | – | 29 | – | – | 0.49 | 14.3 | 10.1 |
| C[C@@H]1NC(=O)[C@@H]2CSSC[C@H](NC(=O)[C@H](Cc3c[nH]c4ccccc34)NC(=O)[C@H](CCCNC(=N)N)NC(=O)[C@@H](Cc3ccccc3)NC(=O)[C@@H]3C[C@@H](O)CN3C1=O)C(=O)N[C@@H](C)C(=O)N1C[C@H](O)C[C@H]1C(=O)N[C@H](Cc1ccccc1)C(=O)N[C@@H](CCCNC(=N)N)C(=O)N[C@@H](Cc1c[nH]c3ccccc13)C(=O)N2 [Chem. 14, c[c[Cys-Ala-Hyp-D-Phe-Arg-Trp- Cys]-Ala-Hyp-D-Phe-Arg-Trp]] (cyclo(A[Hyp][dF]RWCA[Hyp][dF]RWC); disulfide 6-12) | – | >3 | > 10 | – | – | – | – |
| C[C@@H]1NC(=O)[C@H](CCC(=O)O)NC(=O)[C@H](CCC(=O)O)NC(=O)[C@H](C)NC(=O)[C@@H]2CSSC[C@H](NC(=O)[C@H](Cc3c[nH]c4ccccc34)NC1=O)C(=O)N1CSC[C@H]1C(=O)N[C@@H](Cc1c[nH]cn1)C(=O)N[C@H](Cc1ccccc1)C(=O)N[C@@H](Cc1c[nH]cn1)C(=O)N[C@@H](Cc1c[nH]c3ccccc13)C(=O)N2 [Chem. 105, c[c[Cys-THAZ-His-D-Phe-His-Trp- Cys]-Ala-Glu-Glu-Ala-Trp]] (cyclo(AEEAWC[Thz]H[dF]HWC); disulfide 6-12) | – | >15 | – | – | – | > 100 | – |
| C[C@@H]1NC(=O)[C@H](CC(=O)O)NC(=O)[C@H](CC(=O)O)NC(=O)[C@H](C)NC(=O)[C@@H]2CSSC[C@H](NC(=O)[C@H](Cc3c[nH]c4ccccc34)NC1=O)C(=O)N1CSC[C@H]1C(=O)N[C@@H](Cc1c[nH]cn1)C(=O)N[C@H](Cc1ccccc1)C(=O)N[C@@H](Cc1c[nH]cn1)C(=O)N[C@@H](Cc1c[nH]c3ccccc13)C(=O)N2 [Chem. 106, c[c[Cys-THAZ-His-D-Phe-His-Trp- Cys]-Ala-Asp-Asp-Ala-Trp]] (cyclo(ADDAWC[Thz]H[dF]HWC); disulfide 6-12) | – | >10 | – | – | 10.6 | > 100 | – |
| C[C@@H]1NC(=O)[C@H](CCC(=O)O)NC(=O)[C@H](CC(=O)O)NC(=O)[C@H](C)NC(=O)[C@@H]2CSSC[C@H](NC(=O)[C@H](Cc3c[nH]c4ccccc34)NC1=O)C(=O)N1CSC[C@H]1C(=O)N[C@@H](Cc1c[nH]cn1)C(=O)N[C@H](Cc1ccccc1)C(=O)N[C@@H](Cc1c[nH]cn1)C(=O)N[C@@H](Cc1c[nH]c3ccccc13)C(=O)N2 [Chem. 107, c[c[Cys-THAZ-His-D-Phe-His-Trp- Cys]-Ala-Asp-Glu-Ala-Trp]] (cyclo(ADEAWC[Thz]H[dF]HWC); disulfide 6-12) | – | >10 | – | – | 10.6 | > 100 | – |

More lines, main results first:

| EC50 (human MC4R [1]; [3]) [nM] | MC1R/MC4R cAMP EC50 ratio (human MC4R [1]) | EC50 (human MC1R; [4]) [nM] | Ki (human MC4R [2]; [5]) [nM] | Structure (SMILES) | EC50 (human MC4R [1]) [nM] | EC50 (human MC1R) [nM] | Ki (human MC4R [2]) [nM] |
| --- | --- | --- | --- | --- | --- | --- | --- |
| 0.15 | 58 | 8.65 | 0.16 | C[C@@H]1NC(=O)[C@@H]2CSSC[C@H](NC(=O)[C@H](Cc3c[nH]c4ccccc34)NC(=O)[C@H](CCCNC(=N)N)NC(=O)[C@@H](Cc3ccccc3)NC(=O)[C@H](Cc3c[nH]cn3)NC1=O)C(=O)N[C@@H](C)C(=O)N[C@@H](Cc1ccc(O)cc1)C(=O)N[C@@H](Cc1ccccc1)C(=O)N[C@@H](CCCCN)C(=O)N[C@@H](Cc1c[nH]c3ccccc13)C(=O)N2 [Chem. 80, c[c[Cys-Ala-His-D-Phe-Arg-Trp-Cys]- Ala-Tyr-Phe-Lys-Trp]] (cyclo(AH[dF]RWCAYFKWC); disulfide 6-12) | – | – | – |
| – | >20 | > 55 | 0.6 | C[C@@H]1NC(=O)[C@@H]2CSSC[C@H](NC(=O)[C@H](Cc3c[nH]c4ccccc34)NC(=O)[C@H](CCCCN)NC(=O)[C@H](CCCCN)NC(=O)[C@H](CCCCN)NC1=O)C(=O)N1CCC[C@@H]1C(=O)N[C@@H](Cc1c[nH]cn1)C(=O)N[C@H](Cc1ccccc1)C(=O)N[C@@H](Cc1c[nH]cn1)C(=O)N[C@@H](Cc1c[nH]c3ccccc13)C(=O)N2 [Chem. 98, c[c[Cys-D-Pro-His-D-Phe-His-Trp- Cys]-Ala-Lys-Lys-Lys-Trp]] (cyclo(AKKKWC[dP]H[dF]HWC); disulfide 6-12) | – | – | – |
| – | >40 | > 50 | 0.3 | C[C@@H]1NC(=O)[C@@H]2CSSC[C@H](NC(=O)[C@H](Cc3c[nH]c4ccccc34)NC(=O)[C@H](CCCCN)NC(=O)[C@H](CCCCN)NC(=O)[C@H](CCCCN)NC1=O)C(=O)N(C)CC(=O)N[C@@H](Cc1c[nH]cn1)C(=O)N[C@H](Cc1ccccc1)C(=O)N[C@@H](Cc1c[nH]cn1)C(=O)N[C@@H](Cc1c[nH]c3ccccc13)C(=O)N2 [Chem. 73, c[c[Cys-Sar-His-D-Phe-His-Trp-Cys]- Ala-Lys-Lys-Lys-Trp]] (cyclo(AKKKWC[Sar]H[dF]HWC); disulfide 6-12) | – | – | – |
| 0.004 | 40 | 0.16 | 0.01 | C[C@@H]1NC(=O)[C@@H]2CSSC[C@H](NC(=O)[C@H](Cc3c[nH]c4ccccc34)NC(=O)[C@H](CCCNC(=N)N)NC(=O)[C@@H](Cc3ccccc3)NC(=O)[C@H](Cc3c[nH]cn3)NC1=O)C(=O)N[C@@H](C)C(=O)N[C@@H](CCCCN)C(=O)N[C@@H](CCCCN)C(=O)N[C@@H](CCCCN)C(=O)N[C@@H](CCCNC(=N)N)C(=O)N2 [Chem. 59, c[c[Cys-Ala-His-D-Phe-Arg-Trp-Cys]- Ala-Lys-Lys-Lys-Arg]] (cyclo(AH[dF]RWCAKKKRC); disulfide 6-12) | – | – | – |
| 0.21 | >5 | > 1 | – | C[C@@H]1NC(=O)[C@@H]2CSSC[C@H](NC(=O)[C@H](Cc3c[nH]c4ccccc34)NC(=O)[C@H](CCCN)NC(=O)[C@@H](Cc3ccccc3)NC(=O)[C@H](Cc3c[nH]cn3)NC1=O)C(=O)N[C@@H](C)C(=O)N[C@@H](Cc1c[nH]cn1)C(=O)N[C@H](Cc1ccccc1)C(=O)N[C@@H](CCCN)C(=O)N[C@@H](Cc1c[nH]c3ccccc13)C(=O)N2 [Chem. 16, c[c[Cys-Ala-His-D-Phe-Orn-Trp-Cys]- Ala-His-D-Phe-Orn-Trp]] | – | – | – |
| – | >2 | > 100 | – | C[C@@H]1NC(=O)[C@@H]2CSSC[C@H](NC(=O)[C@H](Cc3c[nH]c4ccccc34)NC(=O)[C@H](CCCNC(N)=O)NC(=O)[C@@H](Cc3ccccc3)NC(=O)[C@H](Cc3c[nH]cn3)NC1=O)C(=O)N[C@@H](C)C(=O)N[C@@H](CCC(=O)O)C(=O)N[C@@H](CCC(=O)O)C(=O)N[C@@H](CCC(=O)O)C(=O)N[C@@H](Cc1c[nH]c3ccccc13)C(=O)N2 [Chem. 45, c[c[Cys-Ala-His-D-Phe-Cit-Trp-Cys]- Ala-Glu-Glu-Glu-Trp]] (cyclo(AEEEWCAH[dF][Cit]WC); disulfide 6-12) | – | – | – |
